Assay results taken from patent US20250144047A1, “PHARMACEUTICAL COMPOSITION FOR PREVENTING, AMELIORATING, OR TREATING CANCER CONTAINING 8-PARADOL” (KDBIO CORP., priority 2022, published 2025).

Columns and labels:
[1] = test system: AGS xenografts; experiment: Tumor size in AGS-xenograft mice; type: in vivo
Procedure: (§1) Male nude mice (CAnN.Cg-Foxn1-nu, 4 weeks old, 20 g to 22 g) were purchased from OrientBio (Seongnam, Republic of Korea). The mice were placed in a chamber with conditions maintained at 23° C. and 50% humidity with a period of 12 hours of light and 12 hours of darkness. All animal experiments were conducted according to the National Institutes of Health's Laboratory Animal Care and Use Guidelines (NIH Publications No. 8023, revised 1996) and the Kyung Hee University's Animal Care and Use Guidelines ([…]-441, approval data: Sep. 28, 2021). […] The control group was administered with only 0.9% of general saline during this period. Body weights and tumor volumes of the mice were measured daily in all mice during the study period. All mice were euthanized after the end of the experiments. Blood, liver, spleen, kidney, and tumor tissues were extracted and weighed. In order to obtain the protein of tumor tissue, a portion of the tissue was processed with RIPA buffer containing a protease inhibitor cocktail. Then, the expression degree of a specific protein (determined by Western blot) was determined.

[2] = set-up: species or system mice; conditions: mouse, in vivo, po
Procedure: as §1

[3] = test system: AGS xenograft tumor tissue; experiment: IHC staining of tumor tissue; type: in vivo; conditions: tumor tissue of administered mice
Procedure: The tumor tissue was fixed with 10% formalin and embedded with paraffin. Immunohistochemical (IHC) staining was performed using a mouse and rabbit-specific HRP/DAB (ABC) detection IHC kit (Abcam, Cambridge, MA, USA). The tissue was observed through an optical microscope, and the presence of a specific protein in the tumor tissue was determined to be the presence of a brown yellow color. The results were evaluated using ImageJ software.

[4] = test system: AGS cells; experiment: Western blot analysis of AGS cells; type: cell-based, human
Procedure: Mitochondria of AGS cells were extracted using an extraction kit (Abcam, Cambridge, MA, USA). According to the instructions for using the kit, the AGS cells were washed with cold PBS and homogenized in a cold glass vortex mixer. For mitochondrial-rich supernatants, the homogenates were centrifuged at 1000 rpm for 10 minutes at 4° C. For whole protein extraction, AGS cells were processed with samples at various concentrations for 24 hours. The cells were dissolved using Pierce™ RIPA buffer (Thermo Fisher Scientific, Rockford, IL, USA) together with protease inhibitor cocktail (GenDEPOT, TX, USA). The cell-dissolved solution formed in the above manner was centrifuged at 12,000 rpm for 20 minutes. The protein was loaded into a 10% SDS-PAGE gel using a protein gel electrophoresis chamber system and transferred to a PVDF membrane (Thermo Fisher Scientific, Rockford, IL, USA). A PBST solution containing 5% skim milk was used to block the membrane at 25° C. for 1 hour. Then, the membrane was incubated overnight at 4° C. with primary antibodies. Finally, the membrane was incubated with the secondary antibodies at 25° C. for 1 hour, and a protein band was detected using West-Q Pico ECL Solution (GenDEPOT, TX, USA). The results were quantified using ImageJ software.

[5] = test system: AGS cells; experiment: LC3 immunofluorescence staining; type: cell-based, human
Procedure: AGS cells (1×10^5 cells) were cultured on 6-well plates and processed with samples for 24 hours. For cell fixation and permeation, 4% paraformaldehyde and 0.1% Triton X-100 were used, respectively. After blocking with 2% BSA for 1 hour, the cells were incubated with primary antibodies on LC3 for 3 hours at 25° C. Then, the cells were incubated with fluorescein isothiocyanate (FITC)-conjugated secondary antibodies (Abcam, Cambridge, MA, USA) for 30 minutes. Finally, fluorescence was captured and analyzed using the Leica fluorescence microscope and ImageJ software.

[6] = test system: RAW 264.7 cells; type: cell-based
Procedure: AGS cells were grown in RPMI medium containing 10% FBS and 1% PS. HEK293 and RAW264.7 cells were grown in DMEM medium containing 10% FBS and 1% PS under conditions of 37° C., 5% CO2 and 95% air.
In order to evaluate toxicity to each cell, the sample was incubated in each cell (1×10^5 cells/well) cultured in the above manner for 24 hours, and then cytotoxicity to each cell was examined by using the MTT assay.

[7] = test system: AGS cells; experiment: Mito-tracker, ROS and Mito-SOX staining; type: cell-based, human
Procedure: AGS cells (1×10^5 cells) were processed with the sample for 24 hours and then stained with a mitochondrial mito-tracker green kit (Thermo Fisher Scientific, Rockford, IL, USA). The stained cells were observed using the Leica DM IRB fluorescence microscope.
AGS cells were cultured at a density of 1×10^5 cells for 24 hours. After the sample were processed with the cultured cells, intracellular oxidative stress and superoxide were confirmed by a cell ROS/superoxide detection assay kit (Abcam, Cambridge, MA, USA). The degree of fluorescence was evaluated using the Leica DM IRB fluorescence microscope.

[8] = set-up: species or system mice; conditions: mouse, in vivo
Procedure: as §1, with “determined. […] Fuji Dri-Chem analyzer (3500, Fuji Photo Film Co., Osaka, Japan) was used to measure alanine aminotransferase (ALT), aspartate aminotransferase (AST), total bilirumin (T-Bili), total protein (TP), albumin (Alb), albumin/globulin (A/G) ratio, total cholesterol (T-Chol), total triglyceride (TG), glucose (GLU), and blood urea nitrogen (BUN) values.” for “determined.”

[9] = test system: AGS cells; experiment: ATP fluorescence assay in AGS cells; type: cell-based, human
From the text: The ATP degree of the sample-processed AGS cells were detected according to the manufacturer's instructions by using an ATP fluorescence assay kit (Biovision, Milpitas, CA, USA).

[10] = 8-paradol-H 8 mg/kg oral 16 days
[11] = 8-paradol and CQ in combination, compared to 8-paradol solely
[12] = 8-paradol in combination with CQ, compared to 8-paradol solely

## CCCCCCCCCC(=O)CCc1ccc(O)c(OC)c1 [Purified Compound 3, 8-paradol]
[1]; [10]
  size and weight of the tumor compared to Con-T: significantly reduced
  size, weight, and volume of the tumor compared to the 5-FU group: further reduced
[1]; 8-paradol-M 4 mg/kg oral 16 days
  size of the tumor compared to Con-T: significantly reduced
[2]
  liver and kidney indices versus Con-T group: did not exhibit a significant difference
[2]; 8 mg/kg
  body weight: 19.5 g
[3]
  density of LC3 and caspase-3 in tumor tissue: increased
[4]; [11]
  Bcl-2 expression: significantly increased
  expression degree of Bax, Cytochrome c and caspase-3/-9: significantly decreased
[4]; 8-paradol combined with CQ 30 μM, compared to 8-paradol solely
  conversion to LC3b and degradation of p62: more strongly induces
[4]; [12]
  expression of TOM20 and TIM23: increased
[4]; AGS cells
  amount of Bax, Cytochrome C and Cleaved-caspase-3/-9: increased
  amount of Bcl-2: decreased
  expression of p62: degraded p62 in a dose-dependent manner
  protein expression of Pink1 and Parkin: significantly increased
[4]; AGS cells, compared with control group
  protein expression of TOM20 and TIM23: decreased
[4]; AGS cells, dose- and time-dependent
  conversion from LC3a to LC3b: promoted
[4]; AGS cells, mitochondrial fraction
  Parkin concentration of the mitochondrial fraction: increased
[5]
  endogenous LC3 spots: increase
[6]
  cytotoxicity to normal cells RAW 264.7: did not express significant cytotoxicity
[7]; [12]
  Mito-SOX: partially reduced
  segmented mitochondria: reduced
[7]; AGS cells
  ROS and Mito-SOX production: overproduction
[7]; AGS cells, 24 hours
  mitochondrial morphology (Mito-tracker): damaged and fragmented mitochondrial morphology
[8]
  harm to the liver: not harmful to the liver
  kidney damage: did not cause kidney damage
[9]; 8-paradol with CQ (inhibiting mitophagy)
  ATP loss induced by 8-paradol: reduced
[9]; AGS cells
  ATP concentration in AGS cells: reduced
